Reference: patent US9375411B2, “Uses and methods for the treatment of liver diseases or conditions” (Verlyx Pharma Inc., priority 2012, dated 2016)
Values joined by “and” are separate entries in the source; they are usually repeats but may differ in a detail not shown here. Equal values may be shown once.

What was measured:
[1] = tested on: chemokines interleukin (IL)-8, GRO alpha and MCP-1; conditions: human whole blood, cited from earlier work
[2] = Oral bioavailability and biodistribution of pentamidine salts
Procedure: In this experiment, HCl, isethionate and tosylate salts of pentamidine were administered orally to mice and their PK and tissue accumulations were compared.
PK parameters for pentamidine salt following oral administration of 200 mg/kg in mice.
Biodistribution of Pentamidine Salts in mice, 24 hours after PO administration of 200 mg/kg.

[3] = Repeat dose oral tablet or intravenous infusion, biodistribution and tissue elimination; conditions: Beagle dogs
[4] = in vivo; conditions: female, Fox Chase SCID CB17, mouse, oral
[5] = tested on: NASH-like pathology; test: Diabetic and high-fat diet model (STAM mice, NASH-like pathology); type: in vivo, C57BL/6 mice; conditions: high dose group (25 mg/kg IP three times a week, 6-9 wks)
Procedure: In this experiment, NASH-like pathology is induced in C57BL/6 mice by a single subcutaneous injection of 200 ug streptozotocin 2 days after birth and feeding with high fat diet (HFD, 57 kcal % fat, cat#: HFD32, CLEA Japan, Japan) after 4 weeks of age (STAM mice). Vehicle or pentamidine treatment was administered three times a week from 6 to 9 weeks of age. Vehicle (0.9% NaCl) and PENTAMIDINE were administered by intraperitoneal route in a volume of 10 mL/kg.

[6] = tested on: GalN/LPS-induced liver injury; test: GalN/LPS fulminant liver injury survival study; type: in vivo; conditions: C57BL/6 mice; IP 30 minutes prior GalN/LPS; PENTAMIDINE 40 mpk, Decamidine 10 mpk
Procedure: In this experiment, the 8-hour survival rate for C57BL/6 mice is evaluated when treated or not with two different aromatic diamidines (pentamidine isethionate(C5) and decamidine isethionate (C10)). Both compounds were administered intraperitoneally at doses close to their MTD 30 minutes prior a GalN/LPS-induced liver injury.

[7] = tested on: GalN/LPS fulminant liver injury; test: GalN/LPS fulminant liver injury model; type: in vivo; conditions: mice; for Serum ALT / Serum ALT levels reduced relative to PBS vehicle: 6.5 hours
Procedure: To evaluate the anti-inflammatory, anti-TNFα and hepato-protective properties of PENTAMIDINE, a Galactosamine/Liposaccharide (GalN/LPS) fulminant liver injury model was used.
Three independent experiments on mice untreated or pretreated with vehicle, compound PENTAMIDINE (isethionate salt) at doses of 25 and 40 mg/kg. PENTAMIDINE is dosed IP 30-minutes prior to the co-treatment with subtoxic doses of hepatotoxin GalN and immune stimulant LPS. Mice were sacrificed at 6.5 hours after GalN/LPS for analysis. The analysis of alanine transaminase (ALT) serum levels and histological observations allow the evaluation of the hepato-protective, anti-TNF-α, anti-inflammatory and/or anti-fibrotic activity.
To evaluate the anti-inflammatory, anti-TNFα and hepatoprotective properties of different pentamidine salt such as pentamidine bis-HCl (penta-HCL) and pentamidine tosylate (penta-Tos), a Galactosamine/Liposaccharide (GalN/LPS) fulminant liver injury model was used.
Pentamidine HCl and Tosylate were dosed IP 30-minutes prior to the co-treatment with subtoxic doses of hepatotoxin GalN and immune stimulant LPS. Mice were sacrificed at 6.5 hours after GalN/LPS for analysis. The analysis of alanine transaminase (ALT) serum levels and histological observations allow the evaluation of the hepato-protective, anti-TNF-α, anti-inflammatory and/or anti-fibrotic activity. Results

[8] = Repeat dose oral capsule or intravenous infusion pharmacokinetics in blood; type: in vivo, Male Beagle Dogs; conditions: Beagle dogs, 2-h IV 4 mg/kg/day, Day 1, individual animals and Mean
Procedure: Pharmacokinetics Study in Male Beagle Dogs. Three oral formulations were tested.
In this example, the pharmacokinetics and biodistribution are studied in Male Beagle Dogs. The Dog is a relevant model since the elimination rate from the different organs, mainly the liver, are closer to that observed in man. Three oral formulations were tested and compared to the injectable formulation: […]
The test item dosing formulation was administered once daily as a 2-hour intravenous infusion via the saphenous and/or cephalic vein using an infusion pump, using a temporary peripheral vein catheter attached to a syringe, for 2 consecutive days. The dose volume was 4 mL/kg and the infusion rate was 2 mL/kg/hour for all animals. The actual volume administered to each animal was calculated and adjusted based on the most recent practical body weight of each animal. The catheter was flushed with 0.9% Sodium Chloride for Injection, USP (saline) in order to ensure that the whole intended dose was administered to the animals, after which the temporary catheter was removed and discarded.
The test item was administered twice daily (targeted time: 12 hours apart) by oral capsule administration for 3 consecutive days to fasted animals (at least 4 hours prior to dosing). Food was returned 2 hours post-dose.
The number of capsules to be administered to each animal was fixed to 2 capsules/animals/occasion. If needed, following dosing, the oral cavity was rinsed with an appropriate volume of reverse osmosis water to facilitate swallowing. The oral cavity was inspected following dosing to ensure that the capsules have been swallowed.

[9] = mice, 24 hours after PO 200 mg/kg, listed as Penta-Ise, 200 mg/kg
[10] = mice, oral 200 mg/kg, blood, listed as Isethionate salt, 200 mg/kg
[11] = IP 25 mg/kg 30 minutes prior to GalN/LPS
[12] = IP 40 mg/kg 30 minutes prior to GalN/LPS
[13] = male, Beagle, dog, iv, 4 mg/kg/day

## N=C(N)c1ccc(OCCCCCOc2ccc(C(=N)N)cc2)cc1 [pentamidine, pentamidine bis(2-hydroxyethanesulfonate)]
[1]; 10 microM
  PHA-induced generation of IL-6: partial inhibition
  PHA-induced generation of TNF-alpha, IL-1 beta, IL-2, IL-4, IL-5, IL-10 and IFN-gamma: no significant inhibitory effect
[1]
  LPS- and PHA-stimulated whole blood generation of chemokines IL-8, GRO alpha, MCP-1: dose-dependently suppress
[2]; [9]
  Tissue Concentration Kidney: 5.0 µM
  Tissue Concentration Liver: 5.6 µM
  Tissue Concentration Lung: 2.7 µM
  Tissue Concentration Pancreas: 1.3 µM
[2]; mice, oral 200 mg/kg, based on the iv AUC at 5 mg/kg of 19.08, listed as Isethionate salt
  F*: 3.0
[2]; [10]
  AUCINF: 23.0 µM·h
  Cl/F: 15.3 L/kg/h
  Cmax: 3.06 µM
  MRT: 52.8 h
  Tmax: 3.33 h
  t½: 44.5 h
[2]; mouse, in vivo, iv, 5 mg/kg
  AUC: 19.1 µM·h
[3]; instant-release tablet
  Biodistribution in organs following PO administration: favored the liver
[3]; instant-release tablet PO vs IV, normalized liver concentrations
  exposure to the pancreas and kidney, PO versus IV administration: significantly lower exposure
[4]
  bioavailability: ~1%
[5]
  Liver weights: close to normal mice control values
  fibrosis formation (Sirius Red staining): trend for reduction
[6]
  8-hour survival: 83%
[7]; GalN/LPS, P<0.0002 as compared to PBS+GalN/LPS
  Numbers of TUNEL-positive cells per high power field in the livers: significantly decreased
[7]; [11]
  Serum ALT: 402+/−105
  Serum ALT levels reduced relative to PBS vehicle: 93%
[7]; [12]
  Serum ALT: 177+/−44
  Serum ALT levels reduced relative to PBS vehicle: 97%
[8]; 4 mg/kg/day
  AUC % Extrap: 22.12% and 18.04% and 19.13% and 48.74% and 43.8% and 19.89%
  AUCINF: 24.54 µmol·h/L and 35.82 µmol·h/L and 9.09 µmol·h/L and 20.95 µmol·h/L and 35.1 µmol·h/L and 17.89 µmol·h/L
  AUClast: 19.11 µmol·h/L and 29.35 µmol·h/L and 7.35 µmol·h/L and 10.74 µmol·h/L and 19.73 µmol·h/L and 14.33 µmol·h/L
  CL: 0.48 L/h/kg and 0.33 L/h/kg and 1.29 L/h/kg and 0.56 L/h/kg and 0.34 L/h/kg and 0.66 L/h/kg
  Cmax: 2200 nM and 2160 nM and 1740 nM and 1220 nM
  MRTlast: 45.29 h and 65.59 h and 6.36 h and 18.84 h and 30.73 h and 38.14 h
  Tlast: 120 h and 168 h and 24 h and 48 h and 72 h and 96 h
  Tmax: 2 h
  Vz: 26.52 L/kg and 18.59 L/kg and 22.93 L/kg and 32.19 L/kg and 33.41 L/kg
  t1/2: 35.23 h
[8]; [13]
  Cmax: 1430 nM
  half-life: 2820 min
[8]; male, Beagle, dog, iv, 4 mg/kg/day, read-out: Tmax
  Tmax: 1 h
[8]; male, Beagle, dog, iv, 4 mg/kg/day, read-out: Vz
  Vd: 32.5 L/kg
[8]; male, dog
  Cmax: 1040 nM
